Results: patent publication US20100105655A1, “NOVEL COMPOUNDS 515” (ASTRAZENECA AB, priority 2008, published 2010)

Molecular target: T1, IGFR kinase (Homo sapiens, UniProt P08069)
T1 construct: purchased Millipore
Assay: Enzyme assay (c), IGFR kinase, Caliper LabChip
Type: biochemical
Conditions: not given

T1 sequence (P08069 31-1367): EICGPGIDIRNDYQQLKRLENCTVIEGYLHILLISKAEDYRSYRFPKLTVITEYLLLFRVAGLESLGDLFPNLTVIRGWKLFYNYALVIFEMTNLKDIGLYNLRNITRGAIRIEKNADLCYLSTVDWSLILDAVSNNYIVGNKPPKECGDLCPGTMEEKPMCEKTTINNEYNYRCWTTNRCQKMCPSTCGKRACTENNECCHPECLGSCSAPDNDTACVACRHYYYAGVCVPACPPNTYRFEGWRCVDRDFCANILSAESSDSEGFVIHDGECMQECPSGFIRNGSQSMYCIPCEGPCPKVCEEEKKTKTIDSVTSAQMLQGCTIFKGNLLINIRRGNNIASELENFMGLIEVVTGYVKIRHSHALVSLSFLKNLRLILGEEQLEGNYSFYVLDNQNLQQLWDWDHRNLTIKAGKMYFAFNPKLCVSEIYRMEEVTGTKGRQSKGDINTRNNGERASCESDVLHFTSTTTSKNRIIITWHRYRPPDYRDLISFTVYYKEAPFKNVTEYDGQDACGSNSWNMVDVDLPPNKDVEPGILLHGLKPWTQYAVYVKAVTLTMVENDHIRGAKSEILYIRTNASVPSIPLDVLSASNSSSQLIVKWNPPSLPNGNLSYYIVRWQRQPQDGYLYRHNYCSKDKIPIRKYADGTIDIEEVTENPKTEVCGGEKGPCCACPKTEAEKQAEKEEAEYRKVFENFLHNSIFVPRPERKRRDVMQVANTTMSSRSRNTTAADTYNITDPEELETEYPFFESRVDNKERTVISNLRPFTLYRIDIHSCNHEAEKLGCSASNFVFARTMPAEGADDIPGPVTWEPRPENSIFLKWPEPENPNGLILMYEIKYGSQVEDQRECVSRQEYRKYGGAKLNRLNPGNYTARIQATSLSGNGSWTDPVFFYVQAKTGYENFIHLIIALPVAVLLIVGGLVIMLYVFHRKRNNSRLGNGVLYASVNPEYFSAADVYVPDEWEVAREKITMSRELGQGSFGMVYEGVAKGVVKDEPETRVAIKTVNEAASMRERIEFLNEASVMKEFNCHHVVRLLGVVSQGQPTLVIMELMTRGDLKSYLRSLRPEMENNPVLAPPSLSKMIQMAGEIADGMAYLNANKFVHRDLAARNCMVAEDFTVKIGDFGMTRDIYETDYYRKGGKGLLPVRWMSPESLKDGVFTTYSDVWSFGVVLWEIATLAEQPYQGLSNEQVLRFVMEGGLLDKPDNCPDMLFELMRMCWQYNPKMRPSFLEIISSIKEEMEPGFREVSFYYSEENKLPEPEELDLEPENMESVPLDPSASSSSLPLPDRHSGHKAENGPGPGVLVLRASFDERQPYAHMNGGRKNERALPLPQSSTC

Work on `COc1cc(N2CC3CNCC(C2)O3)ccc1Nc1ncc(Cl)c(-c2cnc3c(F)cccn23)n1` [Example 183, 5-chloro-4-(8-fluoroimidazo[1,2-a]pyridin-3-yl)-N-[2-methoxy-4-(9-oxa-3,7-diazabicyclo[3.3.1]nonan-7-yl)phenyl]pyrimidin-2-amine] yielded an IC50 of 7 nM.

Same assay, conditions: 30 nM IGFR kinase, 6 uM ATP, 3 uM peptide mix; read-out: IGFR IC50

Going from `COc1cc(C2CCN(C(C)=O)CC2)ccc1Nc1ncc(C#N)c(-c2cnn3ccccc23)n1` [Example 239, 2-[4-(1-acetyl-4-piperidyl)-2-methoxy-anilino]-4-pyrazolo[1,5-a]pyridin-3-yl-pyrimidine-5-carbonitrile] to `COc1cc(C2CCN(C(=O)CO)CC2)ccc1Nc1ncc(Cl)c(-c2cnc3ccccn23)n1` [Example 28.5, 1-[4-[4-[(5-chloro-4-imidazo[1,2-a]pyridin-3-yl-pyrimidin-2-yl)amino]-3-methoxy-phenyl]-1-piperidyl]-2-hydroxy-ethanone], the IC50 falls from 110 nM to 4 nM (28-fold).

First: COc1cc(N2CCN(C(=O)CO)CC2)ccc1Nc1ncc(Cl)c(-c2cnc3c(F)cc(F)cn23)n1 [Example 250, 1-[4-[4-[[5-chloro-4-(6,8-difluoroimidazo[1,2-a]pyridin-3-yl)pyrimidin-2-yl]amino]-3-methoxy-phenyl]piperazin-1-yl]-2-hydroxy-ethanone]
Second: COc1cc(C2CCN(CC(=O)N(C)C)CC2)ccc1Nc1ncc(Cl)c(-c2cnc3c(F)cccn23)n1 [Example 216, 2-[4-[4-[[5-chloro-4-(8-fluoroimidazo[1,2-a]pyridin-3-yl)pyrimidin-2-yl]amino]-3-methoxy-phenyl]-1-piperidyl]-N,N-dimethyl-acetamide]
The IC50 of the first is 3.5-fold higher: 7 nM for the first, 2 nM for the second.

`COc1cc(C2CCOCC2)ccc1Nc1ncc(F)c(-c2cnc3ccccn23)n1` [Example 113, 5-fluoro-4-imidazo[1,2-a]pyridin-3-yl-N-(2-methoxy-4-tetrahydropyran-4-yl-phenyl)pyrimidin-2-amine] and `COc1ccc(C2CCNCC2)cc1Nc1ncc(F)c(-c2cnc3ccccn23)n1` [Example 112, 5-fluoro-4-imidazo[1,2-a]pyridin-3-yl-N-[2-methoxy-5-(4-piperidyl)phenyl]pyrimidin-2-amine] are within 1.5-fold of each other in IC50: 33 nM for the first, 42 nM for the second.

First: COc1cc(CC(=O)NC2CCNC2)ccc1Nc1ncc(Cl)c(-c2cnc3ccccn23)n1 (stereo not shown) [Example 35, 2-[4-[(5-chloro-4-imidazo[1,2-a]pyridin-3-yl-pyrimidin-2-yl)amino]-3-methoxy-phenyl]-N-pyrrolidin-3-yl-acetamide]
Second: COc1cc(N2CC[C@H](N(C)C)C2)ccc1Nc1ncc(Cl)c(-c2cnc3ccccn23)n1 [Example 3.16, 5-chloro-N-[4-[(3S)-3-dimethylaminopyrrolidin-1-yl]-2-methoxy-phenyl]-4-imidazo[1,2-a]pyridin-3-yl-pyrimidin-2-amine]
The IC50 of the first is 2-fold lower: 21 nM for the first, 43 nM for the second.

Compared with `COc1cc(CC(CO)CO)ccc1Nc1ncc(Cl)c(-c2cnc3c(F)cccn23)n1` [Example 193, 2-[[4-[[5-chloro-4-(8-fluoroimidazo[1,2-a]pyridin-3-yl)pyrimidin-2-yl]amino]-3-methoxy-phenyl]methyl]propane-1,3-diol], `COc1cc(N(C)CC(=O)N(C)C)ccc1Nc1ncc(Cl)c(-c2cnc3c(F)cccn23)n1` [Example 225, 2-[4-[[5-chloro-4-(8-fluoroimidazo[1,2-a]pyridin-3-yl)pyrimidin-2-yl]amino]-3-methoxy-N-methyl-anilino]-N,N-dimethyl-acetamide] is 5.2-fold higher in IC50: 25 nM for the first, 130 nM for the second.

Going from `COc1cc(C(C)C(=O)N2CCOCC2)ccc1Nc1ncc(Cl)c(-c2cnc3ccccn23)n1` (stereo not shown) [Example 3.39, 2-[4-[(5-chloro-4-imidazo[1,2-a]pyridin-3-yl-pyrimidin-2-yl)amino]-3-methoxy-phenyl]-1-morpholino-propan-1-one] to `COc1ccc(N2CCN(C(=O)CN(C)C)CC2)cc1Nc1ncc(C)c(-c2cnn3ccccc23)n1` [Example 236, 2-(dimethylamino)-1-[4-[4-methoxy-3-[(5-methyl-4-pyrazolo[1,5-a]pyridin-3-yl-pyrimidin-2-yl)amino]phenyl]piperazin-1-yl]ethanone], the IC50 rises from 31 nM to 49 nM (1.6-fold). The first is the more potent here.
